The subject of one data set is NCI/ADR-RES. As to the kind of experiment: NCI 60 cell line panel: NCI/ADR-RES. It is filed as cell-based, human. To be noted: Ovarian cancer, TP53 null/mutant. From the text: (§1) Details of the NCI 60 One Dose Screen are well known and available online.
A further data set has as its system NCI-H460. Put plainly: NCI 60 cell line panel: NCI-H460. The note with it: NSCL, TP53 wild type. The format is cell-based, human.
Description: as §1

In another data set the test system is OVCAR-4. As to the kind of experiment: NCI 60 cell line panel: OVCAR-4. The format is cell-based, human. To be noted: Ovarian cancer, TP53 null/mutant.
Description: as §1

For data set [1] the following is noted: nude mice; same schedule.
Description: Three mice were placed in a dose group on the first day of treatment (Day 1). […] Animals were observed daily for mortality and moribundity. Body weights were measured daily starting on day 1.
The next data set concerns HS 578T. As to the kind of experiment: NCI 60 cell line panel: HS 578T. The format is cell-based, human. To be noted: Breast cancer, TP53 null/mutant.
Description: as §1

The next data set concerns MDA-MB-231. As to the kind of experiment: NCI 60 cell line panel: MDA-MB-231. The format is cell-based, human. To be noted: Breast cancer, TP53 null/mutant.
Description: as §1

For another data set, the system named is CCRF-CEM. As to the kind of experiment: NCI 60 cell line panel: CCRF-CEM. The format is cell-based, human. The note with it: Leukemia, TP53 null/mutant.
Description: as §1

Another data set concerns 786-0. Put plainly: NCI 60 cell line panel: 786-0. The format is cell-based, human. To be noted: Renal cancer, TP53 null/mutant.
Description: as §1

A further data set addresses T1, RNR (Homo sapiens, UniProt P23921).
T1 construct: endogenous in cells; host or cells: HeLa
T1 sequence (P23921 1-792): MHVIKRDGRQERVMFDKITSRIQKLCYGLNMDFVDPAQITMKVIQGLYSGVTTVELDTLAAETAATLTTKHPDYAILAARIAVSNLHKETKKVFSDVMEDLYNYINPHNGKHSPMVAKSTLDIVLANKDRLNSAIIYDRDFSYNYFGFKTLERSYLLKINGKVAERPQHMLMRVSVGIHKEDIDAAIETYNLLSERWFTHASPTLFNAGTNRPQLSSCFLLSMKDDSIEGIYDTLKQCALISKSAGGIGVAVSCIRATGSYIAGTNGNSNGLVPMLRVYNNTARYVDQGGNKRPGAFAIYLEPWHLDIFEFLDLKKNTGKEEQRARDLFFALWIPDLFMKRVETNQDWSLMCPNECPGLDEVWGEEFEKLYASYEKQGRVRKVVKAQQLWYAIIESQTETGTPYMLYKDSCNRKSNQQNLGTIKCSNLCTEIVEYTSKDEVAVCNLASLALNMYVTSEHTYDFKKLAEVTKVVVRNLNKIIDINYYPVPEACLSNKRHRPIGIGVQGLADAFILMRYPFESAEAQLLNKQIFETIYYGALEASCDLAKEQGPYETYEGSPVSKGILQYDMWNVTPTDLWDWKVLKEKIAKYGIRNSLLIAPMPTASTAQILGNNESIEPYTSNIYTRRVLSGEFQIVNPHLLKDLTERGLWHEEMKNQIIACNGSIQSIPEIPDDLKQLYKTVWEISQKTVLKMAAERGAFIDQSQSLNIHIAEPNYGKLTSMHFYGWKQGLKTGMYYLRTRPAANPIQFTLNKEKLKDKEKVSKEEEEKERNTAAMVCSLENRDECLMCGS
T1 sequence (P31350 1-389 partner): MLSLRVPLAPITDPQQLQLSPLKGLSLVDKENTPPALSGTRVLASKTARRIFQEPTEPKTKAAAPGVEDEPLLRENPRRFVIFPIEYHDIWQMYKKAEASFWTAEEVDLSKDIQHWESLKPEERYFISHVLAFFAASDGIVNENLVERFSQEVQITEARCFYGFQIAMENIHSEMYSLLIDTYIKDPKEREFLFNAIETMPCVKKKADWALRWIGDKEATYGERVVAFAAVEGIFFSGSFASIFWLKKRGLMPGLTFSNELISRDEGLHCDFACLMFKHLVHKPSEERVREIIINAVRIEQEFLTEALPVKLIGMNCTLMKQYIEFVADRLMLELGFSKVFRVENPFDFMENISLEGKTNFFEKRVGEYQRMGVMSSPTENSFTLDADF
As to the kind of experiment: RNR inhibition whole cell assay (HPLC of nucleotides from HeLa cell extracts). To be noted: 50 µM, 16 h. The format is cell-based. From the text: Gemcitabine was used as a positive control.
The method used to extract and quantitate nucleotides followed previously reported procedures.

For data set [2], the system named is TP53 WT colon cancer cell line LoVo. Put plainly: In vitro growth inhibition (CellTiter-Glo), LoVo. It is filed as cell-based. To be noted: Homo sapiens, 72 h exposure. The procedure: Further testing was performed in colon cancer cell lines.
Cells were grown in an appropriate medium for the cell line of interest; 96 well plates of each cell line were seeded with 5000 cells per well and left overnight. Drug exposed cells were incubated at 37 °C for 72 h. At the end of the 72 h exposure period, plates were removed for the CellTiter-Glo® assay. Luminescence was recorded on a Synergy 4.0. Assays were performed in triplicate.

In a further data set the test system is UACC-257. Put plainly: NCI 60 cell line panel: UACC-257. The note with it: Melanoma, TP53 wild type. The format is cell-based, human.
Description: as §1

Data set [3] addresses T2, DNMT1 (Homo sapiens, UniProt P26358). As to the kind of experiment: Western blot for DNMT1, THP-1 cells. The format is cell-based. Set-up: cytoplasmic and nuclear protein extracts from cells; endogenous in cells; host or cells: THP-1. To be noted: 0.1 and 0.2 µM, 6 days after exposure. On the procedure:
(§2) Cells were co-stained with Annexin-V and PI on day 2 and analyzed by flow cytometry.
(§3) Approximately 100 µg of cytoplasmic and nuclear protein extracts from cells, together with molecular weight markers, were subjected to SDS-PAGE on 4–12% gradient gels (Invitrogen, Carlsbad, CA, USA) followed by transfer to polyvinylidene fluoride membranes (Invitrogen). Blots were probed using antibodies for DNMT1 (Abcam ab16632).

In another data set the test system is SNB-75. Put plainly: NCI 60 cell line panel: SNB-75. To be noted: CNS cancer, TP53 null/mutant. The format is cell-based, human.
Description: as §1

In the next data set the test system is ACHN. Put plainly: NCI 60 cell line panel: ACHN. It is filed as cell-based, human. The note with it: Renal cancer, TP53 wild type.
Description: as §1

The subject of a further data set is SN12C. Put plainly: NCI 60 cell line panel: SN12C. It is filed as cell-based, human. The note with it: Renal cancer, TP53 null/mutant.
Description: as §1

Data set [4] deals with T2, DNMT1. Put plainly: Western blot for DNMT1, Kasumi-1 cells. It is filed as cell-based. The arrangement: cytoplasmic and nuclear protein extracts from cells; endogenous in cells; host or cells: Kasumi-1. The note with it: 0.1 and 0.2 µM, 6 days after exposure. On the procedure:
as §2, §3

Structures are written as SMILES.

T2 sequence (P26358 whole entry): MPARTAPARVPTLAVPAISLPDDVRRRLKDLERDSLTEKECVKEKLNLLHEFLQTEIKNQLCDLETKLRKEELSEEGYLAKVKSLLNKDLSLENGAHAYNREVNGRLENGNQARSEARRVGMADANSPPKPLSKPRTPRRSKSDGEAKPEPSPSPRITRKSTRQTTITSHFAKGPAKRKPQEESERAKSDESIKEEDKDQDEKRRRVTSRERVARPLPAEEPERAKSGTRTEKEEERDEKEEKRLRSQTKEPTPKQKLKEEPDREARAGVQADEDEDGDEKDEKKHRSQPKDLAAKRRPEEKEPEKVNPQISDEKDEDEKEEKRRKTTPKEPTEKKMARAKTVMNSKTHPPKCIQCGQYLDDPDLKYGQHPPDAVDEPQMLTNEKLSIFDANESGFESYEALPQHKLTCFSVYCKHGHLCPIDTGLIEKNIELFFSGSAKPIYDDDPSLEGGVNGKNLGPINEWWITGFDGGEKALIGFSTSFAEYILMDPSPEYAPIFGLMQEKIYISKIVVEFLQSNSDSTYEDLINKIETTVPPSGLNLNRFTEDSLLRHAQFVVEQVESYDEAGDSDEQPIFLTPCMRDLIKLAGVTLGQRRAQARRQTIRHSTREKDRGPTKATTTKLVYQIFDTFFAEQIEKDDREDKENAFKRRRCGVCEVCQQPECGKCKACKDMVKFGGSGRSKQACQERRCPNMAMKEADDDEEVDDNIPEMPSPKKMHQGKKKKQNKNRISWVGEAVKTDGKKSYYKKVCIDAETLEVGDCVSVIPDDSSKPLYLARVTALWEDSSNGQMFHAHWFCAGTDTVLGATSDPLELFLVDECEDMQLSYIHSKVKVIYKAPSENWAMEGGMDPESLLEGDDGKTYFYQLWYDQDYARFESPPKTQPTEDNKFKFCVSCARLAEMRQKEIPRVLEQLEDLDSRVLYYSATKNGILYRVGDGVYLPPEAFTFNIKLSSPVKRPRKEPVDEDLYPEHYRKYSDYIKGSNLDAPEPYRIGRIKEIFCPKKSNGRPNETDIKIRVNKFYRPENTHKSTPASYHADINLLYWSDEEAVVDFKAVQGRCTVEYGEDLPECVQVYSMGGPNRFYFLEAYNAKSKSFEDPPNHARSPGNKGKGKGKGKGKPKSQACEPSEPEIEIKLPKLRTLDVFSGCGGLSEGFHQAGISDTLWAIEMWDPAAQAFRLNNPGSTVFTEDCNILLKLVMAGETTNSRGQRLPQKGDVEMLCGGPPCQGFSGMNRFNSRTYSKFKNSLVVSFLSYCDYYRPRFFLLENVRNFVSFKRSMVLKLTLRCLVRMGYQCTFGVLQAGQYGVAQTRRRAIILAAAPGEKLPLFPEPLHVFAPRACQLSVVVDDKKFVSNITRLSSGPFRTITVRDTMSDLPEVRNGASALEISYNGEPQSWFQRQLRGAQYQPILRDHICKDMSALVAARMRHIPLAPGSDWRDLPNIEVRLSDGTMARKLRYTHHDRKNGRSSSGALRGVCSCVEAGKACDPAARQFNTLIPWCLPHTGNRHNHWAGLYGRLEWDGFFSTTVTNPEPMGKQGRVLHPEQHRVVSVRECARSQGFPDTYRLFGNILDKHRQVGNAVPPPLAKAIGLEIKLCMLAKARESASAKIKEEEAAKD

On to `Nc1ncn([C@@H]2O[C@H](CO)[C@@H](O)C2(F)F)c(=O)n1` [NUC013, 5-aza-2′,2′-difluroro deoxycytidine], for which the “Growth (%) at 10 µM” value is reported as 42.13% with NCI/ADR-RES; 9.34% in the data set on NCI-H460; 94.88% in the data set on OVCAR-4; 90.37% with HS 578T; 79.98% with MDA-MB-231; 23.67% in the data set with CCRF-CEM. In addition, the “Growth (%) at 10 µM” value with 786-0 is 26.29%; with UACC-257 it was 77.54%; in the data set on SNB-75, 64.95%; with ACHN, 7.28%; in the data set with SN12C, 51.65%. Further, the “difference in MTD versus decitabine” value in [1] is given as “greater than 24 fold”. For the same compound, the ADP concentration on RNR is listed as 13,845. Further, the ATP concentration at RNR is listed as 21,335. On RNR, this compound returned a CTP concentration of 1279. At RNR, this compound registered a GTP concentration of 2006. The UTP concentration at RNR was 4070. Further, on RNR, the “dATP, peak area” value is on record as 10.2 AU. Further, the “dGDP, peak area” value on RNR is 5.6 AU. In addition, the “dTDP, peak area” value at RNR is recorded as 18.65 AU. In addition, the “dUTP, peak area” value at RNR was determined as 8.8 AU. In addition, the concentration for 50% growth inhibition (GI50) in data set [2] is 3000 nM. The “DNMT1 inhibition by western blot” value on DNMT1 [3] is listed as “comparable to decitabine”; on DNMT1 [4], “weaker than decitabine”.

The record behind these values is paper PMC5620609 (Pharmaceuticals, 2017).
